Key:
Test in all cases: relative viability (nuclei count vs DMSO), 5 days (fraction); higher = more cells survive
[1] = compound: Cn1cc(-c2cnn3c(N)c(Br)c([C@@H]4CCCNC4)nc23)cn1 + CC(=O)Nc1cccc(-n2c(=O)n(C3CC3)c(=O)c3c(Nc4ccc(I)cc4F)n(C)c(=O)c(C)c32)c1 [Trametinib] (partner 0.02 µM)
Method in brief: (§1)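 Medians of duplicate plates are given as relative viability. That measure is the nuclei count in treated wells divided by the count in vehicle wells. Counts were taken on 4× images of lung cancer cell lines in 1536-well plates, 5 days after pin-tool dosing the day after seeding with one drug alone or a fixed anchor-drug dose plus five library-drug doses (not always all listed) in √10 steps.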

[2] = compound: Cn1cc(-c2cnn3c(N)c(Br)c([C@@H]4CCCNC4)nc23)cn1 + CC(C)C[C@H](NC(=O)[C@H](Cc1ccccc1)NC(=O)c1cnccn1)B(O)O [Bortezomib] (partner 0.002 µM)
Method in brief: as §1

[3] = compound: Cn1cc(-c2cnn3c(N)c(Br)c([C@@H]4CCCNC4)nc23)cn1 + CS(=O)(=O)N1CCN(Cc2cc3nc(-c4cccc5[nH]ncc45)nc(N4CCOCC4)c3s2)CC1 [Pictilisib] (partner 1 µM)
Method in brief: as §1

[4] = compound: Cn1cc(-c2cnn3c(N)c(Br)c([C@@H]4CCCNC4)nc23)cn1 + O=C(c1cc(Cc2n[nH]c(=O)c3ccccc23)ccc1F)N1CCN(C(=O)C2CC2)CC1 [Olaparib] (partner 8 µM)
Method in brief: as §1

| Cell Line | relative viability ([1]; first compound 0.05 µM) | relative viability ([1]; first compound 0.1581 µM) | relative viability ([1]; first compound 0.5 µM) | relative viability ([1]; first compound 1.581 µM) | relative viability ([1]; first compound 5 µM) | relative viability ([2]; first compound 0.05 µM) | relative viability ([2]; first compound 0.1581 µM) | relative viability ([2]; first compound 0.5 µM) | relative viability ([2]; first compound 1.581 µM) | relative viability ([2]; first compound 5 µM) | relative viability ([3]; first compound 0.05 µM) | relative viability ([3]; first compound 0.1581 µM) | relative viability ([3]; first compound 0.5 µM) | relative viability ([3]; first compound 1.581 µM) | relative viability ([3]; first compound 5 µM) | relative viability ([4]; first compound 0.05 µM) | relative viability ([4]; first compound 0.1581 µM) | relative viability ([4]; first compound 0.5 µM) | relative viability ([4]; first compound 1.581 µM) | relative viability ([4]; first compound 5 µM) |
| --- | --- | --- | --- | --- | --- | --- | --- | --- | --- | --- | --- | --- | --- | --- | --- | --- | --- | --- | --- | --- |
| 201T | 0.692 | 0.751 | 0.687 | 0.722 | 0.7 | 1.04 | 1.09 | 1.1 | 1.07 | 1.17 | 0.644 | 0.621 | 0.704 | 0.613 | 0.573 | 0.888 | 0.836 | 0.803 | 0.743 | 0.719 |
| A549 | – | – | – | – | – | – | – | – | – | – | 0.503 | 0.606 | 0.434 | 0.284 | 0.307 | 0.483 | 0.35 | 0.352 | 0.301 | 0.166 |
| A-427 | 0.756 | 0.675 | 0.704 | 0.651 | 0.341 | 1 | 0.937 | 1.2 | 0.961 | 0.743 | 0.675 | 0.661 | 0.819 | 0.643 | 0.509 | 0.819 | 0.761 | 0.742 | 0.704 | 0.561 |
| ABC-1 | – | – | – | – | – | 0.364 | 0.284 | 0.298 | 0.331 | 0.287 | 0.763 | 0.666 | 0.721 | 0.54 | 0.341 | – | 1.1 | 1.17 | 0.783 | 0.456 |
| BEN | 1.19 | 1.01 | 0.907 | 0.966 | 0.881 | 0.688 | 0.824 | 0.729 | 0.774 | 0.553 | 0.628 | 0.575 | 0.498 | 0.496 | 0.417 | 1.14 | 1.12 | 1.17 | 1.01 | 0.905 |
| CAL-12T | 0.288 | 0.346 | 0.315 | 0.33 | 0.278 | 0.728 | 0.899 | 0.775 | 0.718 | 0.315 | 0.416 | 0.45 | 0.525 | 0.389 | 0.244 | 0.835 | 0.752 | 0.824 | 0.398 | 0.268 |
| COR-L23 | 0.694 | 0.671 | 0.582 | 0.437 | 0.232 | 1.08 | 1.23 | 0.913 | 0.646 | 0.46 | 0.952 | 1.16 | 0.597 | 0.447 | 0.257 | 0.38 | 0.302 | 0.3 | 0.249 | 0.168 |
| COR-L 105 | 0.424 | 0.436 | 0.414 | 0.417 | 0.422 | 0.757 | 0.721 | 0.768 | 0.613 | 0.611 | 0.459 | 0.4 | 0.376 | 0.376 | 0.385 | 0.467 | 0.512 | 0.752 | 0.64 | 0.519 |
| Calu-6 | – | – | – | – | – | 1.17 | 0.733 | 0.685 | 0.363 | 0.188 | 0.935 | 0.605 | 0.419 | 0.212 | 0.194 | 0.604 | 0.521 | 0.481 | 0.251 | 0.168 |
| ChaGo-K-1 | 0.926 | 0.925 | 0.874 | 0.806 | 0.972 | 0.909 | 1.01 | 0.826 | 0.717 | 0.682 | 0.708 | 0.672 | 0.65 | 0.617 | 0.501 | 0.407 | 0.511 | 0.419 | 0.428 | 0.463 |
| EBC-1 | – | – | – | – | – | 0.609 | 0.599 | 0.445 | 0.461 | 0.394 | 0.466 | 0.36 | 0.37 | 0.265 | 0.221 | 0.846 | 0.854 | 0.726 | 0.75 | 0.616 |
| EKVX | 0.445 | 0.317 | 0.413 | 0.377 | 0.409 | 1.06 | 1.16 | 0.987 | 0.836 | 1.07 | 0.507 | 0.506 | 0.507 | 0.469 | 0.396 | 0.761 | 0.958 | 0.872 | 0.767 | 0.707 |
| EMC-BAC-2 | 0.885 | 0.664 | 0.927 | 0.878 | 0.515 | 1.04 | 1.14 | 1.13 | 1.02 | 1.15 | 0.545 | 0.561 | 0.531 | 0.475 | 0.509 | 0.492 | 0.521 | 0.47 | 0.383 | 0.475 |
| EPLC-272H | 0.276 | 0.273 | 0.286 | 0.272 | 0.218 | 0.853 | 0.891 | 0.933 | 0.769 | 0.82 | 0.289 | 0.291 | 0.277 | 0.211 | 0.21 | 0.709 | 0.683 | 0.294 | 0.279 | 0.215 |
| H3255 | 0.694 | 0.534 | 0.668 | 0.633 | 0.405 | 0.676 | 0.787 | 0.854 | 0.792 | 0.441 | 0.489 | 0.488 | 0.427 | 0.425 | 0.327 | 0.567 | 0.615 | 0.604 | 0.509 | 0.39 |
| HARA | 0.762 | 0.474 | 0.482 | 0.532 | 0.344 | 1.19 | 1.16 | 1.18 | 0.764 | 0.224 | 0.463 | 0.345 | 0.372 | 0.438 | 0.207 | 0.758 | 0.856 | 0.784 | 0.442 | 0.229 |
| HCC-15 | 0.38 | 0.421 | 0.379 | 0.393 | 0.409 | 1.16 | 1.18 | 1.03 | 0.788 | 1.11 | 0.798 | 0.768 | 0.757 | 0.634 | 0.764 | 0.832 | 0.797 | 0.837 | 0.867 | 0.973 |

— the supplement of paper PMC10307832
